Results on 26 molecules are retold here after US20050004167A1, “Branched chain amino acid-dependent aminotransferase inhibitors and their use in the treatment of neurodegenerative diseases” (WARNER-LAMBERT COMPANY LLC, priority 2001, published 2005).

The melting point is the temperature, or range, at which the solid turns liquid. On to `COc1c(C(=O)NNS(=O)(=O)c2ccccc2)oc2ccc(-c3ccccc3)cc12` (hydrate or solvate) [Example 65, 2-Benzofurancarboxylic acid, 3-methoxy-5-phenyl-, 2-(phenylsulfonyl)hydrazide], for which the melting point lay in the range of 180.7 to 181.3 °C. On to `COc1c(C(=O)NNS(=O)(=O)c2ccccc2)oc2c(-c3ccccc3)cccc12` (hydrate or solvate) [Example 67, 2-Benzofurancarboxylic acid, 3-methoxy-7-phenyl-, 2-(phenylsulfonyl)hydrazide], for which the melting point was 186.7 to 187.3 °C. Take `COc1c(C(=O)NNS(=O)(=O)c2ccccc2)oc2cc3ccccc3cc12` (hydrate or solvate) [Example 68, Naptho[2,3-b]furan-2-carboxylic acid, 3-methoxy-, 2-(phenylsulfonyl)hydrazide]: the melting point is 205.7 to 207.1 °C. `O=C(NNS(=O)(=O)c1ccccc1Br)c1cc2cc(Cl)cc(Cl)c2o1` (hydrate or solvate) [Example 73, 2-Benzofurancarboxylic acid, 5,7-dichloro 2-[(2-bromophenyl)sulfonyl]-hydrazide] gave a melting point of 196.2 to 196.6 °C. Take `Cc1ccc2oc(C(=O)NNS(=O)(=O)c3ccccc3)cc2c1` (hydrate or solvate) [Example 77, Benzofurancarboxylic acid, 5-methyl-, 2-(phenylsulfonyl)hydrazide]: the melting point was 183.3 to 183.6 °C. In turn, `COc1c(C(=O)NNS(=O)(=O)c2ccccc2)oc2ccc(Cl)cc12` (hydrate or solvate) [Example 78, 2-Benzofurancarboxylic acid, 5-chloro-3-methoxy, 2-(phenylsulfonyl)hydrazide] showed a melting point of 242.2 to 244.2 °C. With `Cc1ccc2oc(C(=O)NNS(=O)(=O)c3ccccc3C(F)(F)F)cc2c1` (hydrate or solvate) [Example 79, 2-Benzofurancarboxylic acid, 5-methyl-, 2-[[2-(trifluoromethyl)phenyl]sulfonyl]-hydrazide] the figure was 194 to 195.4 °C. Under `Cc1cccc(S(=O)(=O)NNC(=O)c2cc3cc(C)ccc3o2)c1` (hydrate or solvate) [Example 80, 2-Benzofurancarboxylic acid, 5-methyl-, 2-([3-methylphenyl)sulfonyl]hydrazide] stands 184.1 to 186 °C; under `Cc1ccc2oc(C(=O)NNS(=O)(=O)c3ccccc3C)cc2c1` (hydrate or solvate) [Example 81, 2-Benzofurancarboxylic acid, 5-methyl-, 2-[2-(methylphenyl)sulfonyl]hydrazide], 174.5 to 174.7 °C. Under `Cc1ccc2oc(C(=O)NNS(=O)(=O)c3cccc(Cl)c3C)cc2c1` (hydrate or solvate) [Example 82, 2-Benzofurancarboxylic acid, 5-methyl-, 2-[(3-chloro-2-methylphenyl)sulfonyl]-hydrazide] stands 182.4 to 184 °C; under `Cc1ccc2oc(C(=O)NNS(=O)(=O)c3cccc(Br)c3)cc2c1` (hydrate or solvate) [Example 83, 2-Benzofurancarboxylic acid, 5-methyl-, 2-[3-(bromophenyl)sulfonyl]hydrazide], 207.2 to 209.9 °C; under `Cc1ccc2oc(C(=O)NNS(=O)(=O)c3cccc(Cl)c3)cc2c1` (hydrate or solvate) [Example 84, 2-Benzofurancarboxylic acid, 5-methyl-, 2-[(3-chlorophenyl)sulfonyl]hydrazide], 186.1 to 186.3 °C.

On to `Cc1ccc2oc(C(=O)NNS(=O)(=O)c3ccccc3OC(F)(F)F)cc2c1` (hydrate or solvate) [Example 85, 2-Benzofurancarboxylic acid, 5-methyl-, 2-[[2-(trifluoromethoxy)phenyl]-sulfonyl]hydrazide], for which the melting point fell in the range of 226.7 to 227 °C. `Cc1cccc2cc(C(=O)NNS(=O)(=O)c3ccccc3)oc12` (hydrate or solvate) [Example 86, 2-Benzofurancarboxylic acid, 7-methyl-, 2-(phenylsulfonyl)hydrazide]: the melting point lay within 217.5 to 218 °C. With `Cc1cccc2oc(C(=O)NNS(=O)(=O)c3ccccc3)cc12` (hydrate or solvate) [Example 87, 2-Benzofurancarboxylic acid, 4-methyl-, 2-(phenylsulfonyl)hydrazide] the figure was 217 to 218 °C; with `Cc1c(C(=O)NNS(=O)(=O)c2ccccc2)oc2ccccc12` (hydrate or solvate) [Example 88, 2-Benzofurancarboxylic acid, 3-methyl-, 2-(phenylsulfonyl)hydrazide], 221.6 to 222.2 °C; with `Cc1ccc2oc(C(=O)NNS(=O)(=O)c3ccccc3)c(C)c2c1` (hydrate or solvate) [Example 89, 2-Benzofurancarboxylic acid, 3,5-dimethyl-, 2-(phenylsulfonyl)hydrazide], 225.9 to 227.1 °C. Under `Cc1c(C(=O)NNS(=O)(=O)c2ccccc2)oc2ccc(Cl)cc12` (hydrate or solvate) [Example 90, 2-Benzofurancarboxylic acid, 5-chloro-3-methyl, 2-(phenylsulfonyl)hydrazide] stands 246.8 to 247.8 °C; under `Nc1ccc2oc(C(=O)NNS(=O)(=O)c3ccccc3)cc2c1` (hydrate or solvate) [Example 91, 2-Benzofurancarboxylic acid, 5-amino-, 2-(phenylsulfonyl)hydrazide], 206.9 to 207.7 °C. As to `Cc1cccc(S(=O)(=O)NNC(=O)c2ccc3ncccc3c2)c1` (hydrate or solvate) [Example 128, 6-Quinolinecarboxylic acid, 2-[(3-methylphenyl)sulfonyl]hydrazide], the melting point is 234 to 234.6 °C. In the case of `Cc1cccc(S(=O)(=O)NNC(=O)c2cnc3ccccc3c2)c1` (hydrate or solvate) [Example 129, 3-Quinolinecarboxylic acid, 2-[(3-methylphenyl)sulfonyl]hydrazide], the melting point was 238.6 to 239.4 °C. Under `O=C(NNS(=O)(=O)c1cccc(Cl)c1)c1ccc2ncccc2c1` (hydrate or solvate) [Example 130, 6-Quinolinecarboxylic acid, 2-[(3-chlorophenyl)sulfonyl]hydrazide] stands 238.4 to 239.1 °C.

Regarding `O=C(NNS(=O)(=O)c1cccc(Cl)c1)c1cnc2ccccc2c1` (hydrate or solvate) [Example 131, 3-Quinolinecarboxylic acid, 2-[(3-chlorophenyl)sulfonyl]hydrazide], the melting point lay in the range of 249.5 to 250.4 °C. Under `O=C(NNS(=O)(=O)c1cccc(F)c1)c1ccc2ncccc2c1` (hydrate or solvate) [Example 132, 6-Quinolinecarboxylic acid, 2-[(3-fluorophenyl)sulfonyl]hydrazide] stands 250.6 to 251.3 °C; under `O=C(NNS(=O)(=O)c1cccc(F)c1)c1cnc2ccccc2c1` (hydrate or solvate) [Example 133, 3-Quinolinecarboxylic acid, 2-[(3-fluorophenyl)sulfonyl]hydrazide], 247.8 to 248.4 °C. `O=C(NNS(=O)(=O)c1cc(Cl)cc(Cl)c1)c1ccc2ncccc2c1` (hydrate or solvate) [Example 138, 6-Quinolinecarboxylic acid, 2-[(3,5-dichlorophenyl)sulfonyl]hydrazide] had a melting point of 241.6 to 242.3 °C.
